Reference: the supplement of paper PMC11061612

Columns and labels:
BE2-M17 (Neuroblastoma) = test: Bliss excess, mean over the matrix (fraction); higher = more synergy
Method in brief: (§1)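 Bliss excess equals the observed combination effect minus the expected value EA + EB − EA·EB, where EA and EB are the effects of each agent alone. Combination Emax is the second-highest inhibition within the matrix. Inhibition was scaled from CellTiter-Glo 2.0 luminescence, with 0 set by vehicle wells and 1 by blank wells, after 72 hours of two-drug dosing of cells plated in 1536-well plates.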

CAL-72 (Osteosarcoma) = test: as above
Method in brief: as §1

[1] = system: Detroit562 (Head and Neck Carcinoma); test: as above
Method in brief: as §1

EW-11 (Ewing's Sarcoma) = test: as above
Method in brief: as §1

GAMG (Glioblastoma) = test: as above
Method in brief: as §1

[2] = system: HeLa (Cervical Carcinoma); test: as above
Method in brief: as §1

[3] = system: KMRC-20 (Kidney Carcinoma); test: as above
Method in brief: as §1

[4] = system: LNZTA3WT4 (Low Grade Glioma); test: as above
Method in brief: as §1

[5] = system: LS-123 (Colorectal Carcinoma); test: as above
Method in brief: as §1

NCI-H2052 (Mesothelioma) = test: as above
Method in brief: as §1

[6] = system: NUGC-4 (Gastric Carcinoma); test: as above
Method in brief: as §1

[7] = system: SAS (Oral Cavity Carcinoma); test: as above
Method in brief: as §1

[8] = system: SNU-16 (Gastric Carcinoma); test: as above
Method in brief: as §1

[9] = system: TGBC1TKB (Biliary Tract Carcinoma); test: as above
Method in brief: as §1

A673 (Ewing's Sarcoma) = test: combination Emax (second highest fraction inhibited in the dose matrix, 72 h); higher = more inhibition; extreme values may be limits of the assay
Method in brief: as §1

[10] = system: Hs-746T (Gastric Carcinoma); test: as above
Method in brief: as §1

[11] = system: OVCAR-5 (Ovarian Carcinoma); test: as above
Method in brief: as §1

[12] = system: SAS (Oral Cavity Carcinoma); test: as above
Method in brief: as §1

Structure (SMILES)	Bliss excess (BE2-M17 (Neuroblastoma))	Bliss excess (CAL-72 (Osteosarcoma))	Bliss excess [1]	Bliss excess (EW-11 (Ewing's Sarcoma))	Bliss excess (GAMG (Glioblastoma))	Bliss excess [2]	Bliss excess [3]	Bliss excess [4]	Bliss excess [5]	Bliss excess (NCI-H2052 (Mesothelioma))	Bliss excess [6]	Bliss excess [7]	Bliss excess [8]	Bliss excess [9]	combination Emax (A673 (Ewing's Sarcoma))	combination Emax [10]	combination Emax [11]	combination Emax [12]
COc1cccc2c1C(=O)c1c(O)c3c(c(O)c1C2=O)C[C@@](O)(C(=O)CO)C[C@@H]3O[C@H]1C[C@H](N)[C@H](O)[C@H](C)O1 [Doxorubicin] + Cc1cc2ncnn2cc1Nc1ncc2c(n1)n(C1CCOCC1)c(=O)n2C [AZD7648] (first compound max 1 µM, 7x7, partner max 10 µM)	0.0514	-0.0164	0.103	0.0408	0.0479	0.0511	0.046	0.016	0.035	0.0122	0.0402	0.0996	0.0506	-0.0247	0.888	0.737	0.587	0.921
COc1cccc(OCCCN)c1-c1cc(Nc2cnc(C#N)cn2)n[nH]1 [Prexasertib] + C[C@@H]1COCCN1C2=NC(=NC(=C2)C3(CC3)[S@](=N)(=O)C)C4=C5C=CNC5=NC=C4 [AZD6738] (first compound max 1 µM, 7x7, partner max 10 µM)	-0.0172	-0.0244	-0.0311	0.0197	0.0414	0.005	0.0013	-0.0422	-0.0242	-0.0282	-0.0203	0.0203	-0.0058	-0.0064	0.883	0.754	0.817	0.943
C[C@@H]1COCCN1c1cc(C2([S@](C)(=N)=O)CC2)nc(-c2ccnc3[nH]ccc23)n1 [AZD6738] + O=C(c1cc(Cc2n[nH]c(=O)c3ccccc23)ccc1F)N1CCN(C(=O)C2CC2)CC1 [Olaparib] (first compound max 10 µM, 7x7, partner max 10 µM)	-0.0176	-0.0183	0.0381	-0.014	-0.0461	0.0497	-0.0101	-0.0197	0.0192	0.026	-0.0163	-0.0361	-0.0054	-0.0578	0.89	0.582	0.515	0.839
CCN(CCO)CCCOc1ccc2c(Nc3cc(CC(=O)Nc4cccc(F)c4)[nH]n3)ncnc2c1 [AZD2811] + O=C(c1cc(Cc2n[nH]c(=O)c3ccccc23)ccc1F)N1CCN(C(=O)C2CC2)CC1 [Olaparib] (first compound max 1 µM, 7x7, partner max 10 µM)	0.0317	0.0343	0.0133	0.0191	-0.0041	-0.0154	0.0017	-0.0005	0.0144	-0.0042	0	0.0114	-0.0101	-0.0368	0.841	0.232	0.184	0.197
CCc1c2c(nc3ccc(O)cc13)-c1cc3c(c(=O)n1C2)COC(=O)[C@]3(O)CC [SN-38] + CN(C)CCCOc1ccc(-c2ccc3ncc4c(c3c2)n(C2CCOCC2)c(=O)n4C)cn1 [AZD0156] (first compound max 0.3 µM, 7x7, partner max 1 µM)	-0.0073	0.0114	0.118	-0.012	0.0527	0.0255	-0.0156	0.0092	-0.0648	-0.0409	0.0208	0.0781	0.107	-0.006	0.996	0.531	0.567	1
CN(C)CCCOc1ccc(-c2ccc3ncc4c(c3c2)n(C2CCOCC2)c(=O)n4C)cn1 [AZD0156] + C[C@@H]1COCCN1C2=NC(=NC(=C2)C3(CC3)[S@](=N)(=O)C)C4=C5C=CNC5=NC=C4 [AZD6738] (first compound max 1 µM, 7x7, partner max 10 µM)	0.0914	0.111	0.0477	-0.112	-0.0485	-0.0217	-0.031	-0.0016	-0.0313	-0.0317	0.0101	-0.0363	0.0529	-0.0227	0.907	0.636	0.756	0.855
CCN(CCO)CCCOc1ccc2c(Nc3cc(CC(=O)Nc4cccc(F)c4)[nH]n3)ncnc2c1 [AZD2811] + C[C@@H]1COCCN1C2=NC(=NC(=C2)C3(CC3)[S@](=N)(=O)C)C4=C5C=CNC5=NC=C4 [AZD6738] (first compound max 1 µM, 7x7, partner max 10 µM)	0.0002	-0.0863	-0.0108	-0.0229	-0.0399	-0.0743	-0.0667	-0.0315	-0.0258	-0.0207	-0.0565	-0.0354	-0.0281	-0.0184	0.852	0.582	0.698	0.83
COc1cccc(OCCCN)c1-c1cc(Nc2cnc(C#N)cn2)n[nH]1 [Prexasertib] + C=CCn1c(=O)c2cnc(Nc3ccc(N4CCN(C)CC4)cc3)nc2n1-c1cccc(C(C)(C)O)n1 [AZD1775] (first compound max 1 µM, partner max 1 µM)	0.098	0.0055	0.0416	-0.0815	0.0606	0.0651	-0.0104	0.133	-0.0296	0.0221	0.0569	0.0405	0.0756	0.0068	0.946	0.78	0.838	0.969
